Patent publication US20250136618A1, “ANTIBIOTIC PYRAZINOTHIAZINE DERIVATIVES AND PROCESS OF PREPARATION THEREOF” (Bugworks Research India PVT Ltd, priority 2021, published 2025)
In brackets after ≈: the same amount, converted by molar mass.

What was measured:
Type in all cases: cell-based
[1] = system: Acinetobacter baumannii ATCC 19606; experiment: Minimum Inhibitory Concentration (MIC) in LB media; conditions: for MIC: Acinetobacter baumannii, ATCC19606
From the text: (§1) The compounds of Formula Ia and Formula Ib are of interest due to their potent antibacterial effects. The ability of the compounds disclosed herein to achieve an antibacterial effect may be evaluated with regard to their ability to inhibit the growth of bacterial species like Escherichia coli ATCC 25922, Staphylococcus aureus ATCC 29213, Klebsiella pneumoniae ATCC 13883, Acinetobacter baumannii ATCC 19606, Pseudomonas aeruginosa ATCC 27853 and Enterococcus faecalis ATCC 29212 using an assay based on the following Minimum Inhibitory Concentration (MIC) protocol:
(§2) The test bacteria were grown in Luria Bertani Broth (HIMEDIA M1245), 25 g of the powder was dissolved in 1000 ml distilled water and sterilized by autoclaving at 15 lbs pressure (121° C.) for 20 minutes. The medium sterility was checked by incubating at 37° C. for a period of 48 h. Bacterial cultures that were stored as glycerol stocks at −80° C. were subcultured on LB agar plates to obtain isolated colonies. A single colony of each strain was cultured in LB broth. The cultures were incubated at 37° C., 200 rpm till they reached an optical density (OD at 600 nm) of 0.8 to 1. This log phase culture was diluted in LB broth to a cell number of 5-8*10^5 CFU/mL to be used as inoculum for MIC experiments. Test compounds were dissolved in dimethyl sulfoxide (DMSO) to a stock concentration of 4 mg/ml. A two-fold dilution series of this DMSO stock was prepared in a 96 well V bottom microtitre plate from rows A to H. A 3 μL volume of these dilutions are transferred to a 96-well flat bottom microtitre assay plate. Controls to monitor the effects of DMSO and media sterility were included. Each well was inoculated with 150 μL of the above diluted culture. The plates were incubated at 37° C. overnight in a humidified incubator. The following morning, the plates were read using a Spectrophotometer at 600 nm wavelength. […] The antibacterial activity (MIC) determined against representative gram-positive (S. aureus, E. faecalis) and gram-negative (E. coli, Aeruginosa, K. pneumoniae, and A. baumannii) pathogen are reported Table 1.

[2] = system: Enterococcus faecalis ATCC 29212; experiment: Minimum Inhibitory Concentration (MIC) in LB media; conditions: for MIC: Enterococcus faecalis, ATCC29212, read-out: Minimum Inhibitory Concentration E. faecalis ATCC 29212
From the text: as §1, §2

[3] = system: Escherichia coli ATCC 25922; experiment: Minimum Inhibitory Concentration (MIC) in LB media; conditions: for MIC: Escherichia coli, ATCC25922, read-out: Minimum Inhibitory Concentration E. coli ATCC 25922
From the text: as §1, §2

[4] = system: Klebsiella pneumoniae ATCC 13883; experiment: Minimum Inhibitory Concentration (MIC) in LB media; conditions: for MIC: Klebsiella pneumoniae, ATCC13883, read-out: Minimum Inhibitory Concentration K. pneumoniae ATCC 13883
From the text: as §1, §2

[5] = system: Pseudomonas aeruginosa ATCC 27853; experiment: Minimum Inhibitory Concentration (MIC) in LB media; conditions: for MIC: Pseudomonas aeruginosa, ATCC27853
From the text: as §1, §2

[6] = system: Staphylococcus aureus ATCC 29213; experiment: Minimum Inhibitory Concentration (MIC) in LB media; conditions: for MIC: Staphylococcus aureus, ATCC29213, read-out: Minimum Inhibitory Concentration S. aureus ATCC 29213
From the text: as §1, §2

Acinetobacter baumannii = experiment: MIC90 determination, clinical strains (CLSI); conditions: for MIC90: Acinetobacter baumannii, N=38, read-out: MIC 90 Acinetobacter baumannii
Citrobacter freundii = experiment: MIC90 determination, clinical strains (CLSI); conditions: for MIC90: Citrobacter freundii, N=19, read-out: MIC 90 Citrobacter freundii
Enterobacter cloacae = experiment: MIC90 determination, clinical strains (CLSI); conditions: for MIC90: Enterobacter cloacae, N=26, read-out: MIC 90 Enterobacter cloacae
Escherichia coli = experiment: MIC90 determination, clinical strains (CLSI); conditions: for MIC90: Escherichia coli, N=38, read-out: MIC 90 Escherichia coli
[7] = system: Klebsiella aerogenes, K. oxytoca; experiment: MIC90 determination, clinical strains (CLSI); conditions: for MIC90: N=17, read-out: MIC 90 Klebsiella aerogenes, K. oxytoca
Klebsiella pneumoniae = experiment: MIC90 determination, clinical strains (CLSI); conditions: for MIC90: Klebsiella pneumoniae, N=86, read-out: MIC 90 Klebsiella pneumoniae
Morganella morganii = experiment: MIC90 determination, clinical strains (CLSI); conditions: for MIC90: Morganella morganii, N=11, read-out: MIC 90 Morganella morganii
Proteus mirabilis = experiment: MIC90 determination, clinical strains (CLSI); conditions: for MIC90: Proteus mirabilis, N=12, read-out: MIC 90 Proteus mirabilis
[8] = system: Providencia rettgeri, P. stuartii; experiment: MIC90 determination, clinical strains (CLSI); conditions: for MIC90: N=12, read-out: MIC 90 Providencia rettgeri, P. stuartii
Pseudomonas aeruginosa = experiment: MIC90 determination, clinical strains (CLSI); conditions: for MIC90: Pseudomonas aeruginosa, N=34, read-out: MIC 90 Pseudomonas aeruginosa
Serratia marcescens = experiment: MIC90 determination, clinical strains (CLSI); conditions: for MIC90: Serratia marcescens, N=15, read-out: MIC 90 Serratia marcescens
CHO-K1 cells = experiment: In-vitro micronucleus assay
Method: Genetic toxicology studies were performed on the compounds of the present disclosure to assess their ability to cause DNA damage. The in-vitro micronucleus assay measured the concentration (μM) of the compound at which micronuclei formation occurred. A micronuclei formation at lower concentration indicates more genetic damage or genotoxicity.
Micronucleus formation is a hallmark of genotoxicity, and the micronucleus assay is an important component of genotoxicity screening. Micronuclei are chromatin-containing bodies that represent fragments or even whole chromosomes that were not incorporated into a daughter cell nucleus at mitosis. The purpose of the assay is to detect agents that induce chromosome damage leading to the induction of micronuclei in interphase cells. The in vitro micronucleus assay was conducted in CHO-K1 cells according to the procedure described by Diaz, D et al [Mutat Res. 630(1-2):1-13. […] The formation of the micronucleus is identified by image-based high content analysis from binucleated cells.

hERG potassium channel = hERG potassium channel (Homo sapiens (Human), UniProt Q12809); experiment: hERG inhibition assay (Qpatch HTX automated electrophysiology); conditions: CHO cell line expressing hERG, whole-cell patch clamp
Method: Electrophysiological recordings were made from a Chinese Hamster Ovary cell line stably expressing the full-length hERG potassium channel. Single cell ionic currents were measured in whole-cell patch clamp configuration at room temperature (21-23° C.) using the Qpatch HTX platform (Sophion). Intracellular solution contained (mM): 120 KF, 20 KCl, 10 EGTA, 10 HEPES and was buffered to pH 7.3. […] Cells were clamped at a holding potential of −80 mV. Cells were stepped to +20 mV for 2 s then −40 mV for 3 s before returning to the holding potential. […] Compounds were then incubated for 2 minutes prior to a second measurement of ion channel current using an identical pulse train.

Chain of hERG potassium channel (Q12809 whole entry): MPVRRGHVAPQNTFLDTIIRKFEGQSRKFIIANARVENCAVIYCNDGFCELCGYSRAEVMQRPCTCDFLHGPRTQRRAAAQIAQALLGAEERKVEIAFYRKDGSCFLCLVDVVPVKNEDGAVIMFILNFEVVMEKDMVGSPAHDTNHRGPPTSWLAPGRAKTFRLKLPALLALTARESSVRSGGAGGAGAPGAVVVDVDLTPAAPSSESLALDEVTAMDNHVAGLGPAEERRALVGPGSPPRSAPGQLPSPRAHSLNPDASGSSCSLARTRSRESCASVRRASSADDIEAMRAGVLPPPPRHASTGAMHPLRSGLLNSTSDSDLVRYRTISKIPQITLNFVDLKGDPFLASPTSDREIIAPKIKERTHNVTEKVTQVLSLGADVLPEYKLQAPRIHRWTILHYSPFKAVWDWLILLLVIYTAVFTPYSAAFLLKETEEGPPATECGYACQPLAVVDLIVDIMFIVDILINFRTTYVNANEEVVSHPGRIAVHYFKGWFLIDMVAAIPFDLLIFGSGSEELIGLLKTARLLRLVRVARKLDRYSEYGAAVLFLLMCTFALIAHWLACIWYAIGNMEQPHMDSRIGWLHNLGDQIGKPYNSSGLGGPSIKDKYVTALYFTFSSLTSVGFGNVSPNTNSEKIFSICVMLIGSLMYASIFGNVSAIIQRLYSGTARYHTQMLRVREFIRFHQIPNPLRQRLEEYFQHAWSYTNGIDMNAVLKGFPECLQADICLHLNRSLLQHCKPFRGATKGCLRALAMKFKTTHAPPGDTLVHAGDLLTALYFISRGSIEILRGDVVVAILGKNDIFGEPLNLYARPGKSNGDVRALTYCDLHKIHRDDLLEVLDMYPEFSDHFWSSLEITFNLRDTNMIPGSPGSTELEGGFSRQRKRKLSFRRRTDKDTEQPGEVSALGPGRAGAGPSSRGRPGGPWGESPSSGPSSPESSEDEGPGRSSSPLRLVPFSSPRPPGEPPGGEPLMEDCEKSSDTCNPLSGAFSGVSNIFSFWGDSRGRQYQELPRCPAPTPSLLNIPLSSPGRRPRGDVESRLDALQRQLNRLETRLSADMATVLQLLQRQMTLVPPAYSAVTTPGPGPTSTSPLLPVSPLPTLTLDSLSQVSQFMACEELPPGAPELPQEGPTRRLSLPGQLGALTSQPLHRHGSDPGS

Row | MIC [1] | MIC [2] | MIC [3] | MIC [4] | MIC [5] | MIC [6] | MIC90 (Acinetobacter baumannii) | MIC90 (Citrobacter freundii) | MIC90 (Enterobacter cloacae) | MIC90 (Escherichia coli) | MIC90 [7] | MIC90 (Klebsiella pneumoniae) | MIC90 (Morganella morganii) | MIC90 (Proteus mirabilis) | MIC90 [8] | MIC90 (Pseudomonas aeruginosa) | MIC90 (Serratia marcescens) | Compound | genotoxicity risk (in words) (CHO-K1 cells) | % (in-vitro micronucleus assay) (CHO-K1 cells; Chinese hamster) | IC50 (hERG potassium channel) | further results
1 | 0.03 µg/mL (≈ 0.0619 µM) | 0.03 µg/mL (≈ 0.0619 µM) | 0.03 µg/mL (≈ 0.0619 µM) | 0.03 µg/mL (≈ 0.0619 µM) | 0.5 µg/mL (≈ 1.03 µM) | < 0.015 µg/mL | 0.5 µg/mL (≈ 1.03 µM) | 1 µg/mL (≈ 2.06 µM) | 8 µg/mL (≈ 16.5 µM) | 0.5 µg/mL (≈ 1.03 µM) | 4 µg/mL (≈ 8.26 µM) | 4 µg/mL (≈ 8.26 µM) | 1 µg/mL (≈ 2.06 µM) | 4 µg/mL (≈ 8.26 µM) | 2 µg/mL (≈ 4.13 µM) | 4 µg/mL (≈ 8.26 µM) | 4 µg/mL (≈ 8.26 µM) | Cn1c(=O)cnc2ccc(OCCNC[C@@H]3CN(c4cnc5c(n4)NC(=O)CS5)C(=O)O3)nc21 [Compound 3, (R)-5-(((2-((4-methyl-3-oxo-3,4-dihydropyrido[2,3-b]pyrazin-6-yl)oxy)ethyl)amino)methyl)-3-(3-oxo-3,4-dihydro-2H-pyrazino[2,3-b][1,4]thiazin-6-yl)oxazolidin-2-one] | completely devoid of any genotoxicity risk | 0.81% |  | micronucleus formation (in words) (CHO-K1 cells): did not induce micronucleus formation; In vitro micronucleus forming concentration (CHO-K1 cells; Chinese hamster): >500 µM
2 | 0.03 µg/mL (≈ 0.0619 µM) | 0.06 µg/mL (≈ 0.124 µM) | 0.06 µg/mL (≈ 0.124 µM) | 0.06 µg/mL (≈ 0.124 µM) | 0.5 µg/mL (≈ 1.03 µM) | 0.015 µg/mL (≈ 0.031 µM) | 1 µg/mL (≈ 2.06 µM) | 2 µg/mL (≈ 4.13 µM) | 8 µg/mL (≈ 16.5 µM) | 0.5 µg/mL (≈ 1.03 µM) | 4 µg/mL (≈ 8.26 µM) | 8 µg/mL (≈ 16.5 µM) | 2 µg/mL (≈ 4.13 µM) | 4 µg/mL (≈ 8.26 µM) | 2 µg/mL (≈ 4.13 µM) | 4 µg/mL (≈ 8.26 µM) | 16 µg/mL (≈ 33 µM) | Cn1c(=O)ccc2ncc(OCCNC[C@@H]3CN(c4cnc5c(n4)NC(=O)CS5)C(=O)O3)nc21 [Compound 4, (R)-5-(((2-((5-methyl-6-oxo-5,6-dihydropyrido[2,3-b]pyrazin-3-yl)oxy)ethyl)amino)methyl)-3-(3-oxo-3,4-dihydro-2H-pyrazino[2,3-b][1,4]thiazin-6-yl)oxazolidin-2-one] |  | 0.76% | > 300 µM | 
3 |  |  |  |  |  |  |  |  |  |  |  |  |  |  |  |  |  | (S)-5-(((2-((4-Methyl-d3)-3-oxo-1,2,3,4-tetrahydropyrido[2,3-b]pyrazin-6-yl)oxy)ethyl)amino)methyl)-3-(3-oxo-3,4-dihydro-2H-pyrazino[2,3-b][1,4]thiazin-6-yl)oxazolidin-2-one [Compound 10] | completely devoid of any genotoxicity risk |  | 157 µM | Minimum Inhibitory Concentration A. baumannii ATCC 19606 [1]: 0.06 µg/mL; Minimum Inhibitory Concentration E. faecalis ATCC 29212 [2]: 0.125 µg/mL; Minimum Inhibitory Concentration E. coli ATCC 25922 [3]: 0.06 µg/mL; Minimum Inhibitory Concentration K. pneumoniae ATCC 13883 [4]: 0.06 µg/mL; Minimum Inhibitory Concentration Aeruginosa ATCC 27853 [5]: 1 µg/mL; Minimum Inhibitory Concentration S. aureus ATCC 29213 [6]: <0.015 µg/mL; MIC 90 Acinetobacter baumannii (Acinetobacter baumannii; N=38): 1 µg/mL; MIC 90 Citrobacter freundii (Citrobacter freundii; N=19): 2 µg/mL; MIC 90 Enterobacter cloacae (Enterobacter cloacae; N=26): 8 µg/mL; MIC 90 Escherichia coli (Escherichia coli; N=38): 0.5 µg/mL; MIC 90 Klebsiella aerogenes, K. oxytoca ([7]; N=17): 2 µg/mL; MIC 90 Klebsiella pneumoniae (Klebsiella pneumoniae; N=86): 8 µg/mL; MIC 90 Morganella morganii (Morganella morganii; N=11): 1 µg/mL; MIC 90 Proteus mirabilis (Proteus mirabilis; N=12): 4 µg/mL; MIC 90 Providencia rettgeri, P. stuartii ([8]; N=12): 1 µg/mL; MIC 90 Pseudomonas aeruginosa (Pseudomonas aeruginosa; N=34): 4 µg/mL; MIC 90 Serratia marcescens (Serratia marcescens; N=15): 16 µg/mL; % (in-vitro micronucleus assay) (CHO-K1 cells; CHO-K1 cells): 0.45%; In vitro micronucleus forming concentration (CHO-K1 cells; CHO-K1 cells): >1000 µM
